Test results from US10918731B2, “HSP90 inhibitory peptide conjugate and application thereof in treating tumor” (INSTITUTE OF BASIC MEDICAL SCIENCES, CHINESE ACADEMY OF …, priority 2015, dated 2021).
Ends that are not written are not given here. Peptide text beside a SMILES is read from it.

What was measured:
[1] = tested on: breast cancer MCF-7S cells; assay: CCK-8 cytotoxicity, breast cancer MCF-7S cells; assay type: cell-based; details: human, 48 h
Procedure: (§1) Lung adenocarcinoma A549, breast cancer MCF-7S and melanoma A375 cells were diluted respectively to 3×10^4 cells/ml and pipetted to 96-well plate with 100 μl in each well. Twenty-four hours later, 5, 20, 80 or 320 nM DTX-P7, Paclitaxel-heptapeptide conjugate (PTX-P7), Doxorubicin-NH2-heptapeptide conjugate (DOX-P7) and Doxorubicin-OH-heptapeptide conjugate (DOX-OH-P7) were added to the wells and incubated for 48 h. Then 10 μl CCK-8 was added and measured 1.5 h later at 450 nm to calculate the viability and median inhibitory concentration IC50.

melanoma A375 cells = assay: CCK-8 cytotoxicity, melanoma A375 cells; assay type: cell-based; details: human, 48 h
Procedure: as §1

[2] = tested on: Lung adenocarcinoma A549 cells; assay: CCK-8 cytotoxicity, lung adenocarcinoma A549 cells; assay type: cell-based; details: human, 48 h
Procedure: as §1

A549 cell xenograft = assay: Human non-small cell lung cancer A549 xenograft nude mice model, tumor growth; assay type: in vivo, BALB/c nu/nu female nude mice; details: 10 mg/kg based on DTX, intraperitoneal, once a week, four injections
Procedure: A549 cell, a non-small cell lung cancer cell line, growing in logarithmic phase were collected and gently pipetted with 1 ml F-12K media containing […] to prepare the single cell suspension, which was consequently counted with appropriate dilution. The cell suspension was mixed with Matrigel (1:3) under ice bath. The concentration of the cell suspension was adjusted to 8×10^6 cells/ml and stored at 0° C. before transplantation.
Thirty BALB/c nu/nu female nude mice (16 g) were acclimated to the environment for 1 week before the formal experiment. […]
The mice were frequently observed and tumor volume was measured with a Vernier caliper, the volume was calculated by the equation (long diameter×short diameter^2) (½), when tumor reaching a size of 100 mm^3, mice were divided into 4 groups: (1) Saline (control), (2) DTX, (3) TN-DTX and (4) DTX-P7.
Next day after animal grouping, agents were administrated via intraperitoneal injection once a week for a total of four injections. The first administrated day was recorded as Day 0 and the other administrated days were respectively recorded as Day 7, Day 14, Day 21. […]
The mice were measured and weighted every two times a week. Tumor dimensions were measured using calipers. […]

tumor cell [3] = assay: Autophagy: autophagosome and expression of autophagy related proteins (Beclin 1, LC3); assay type: cell-based; details: 6 h; for expression of autophagic Beclin1 and LC3, single agent: agent alone
Procedure: The cells were seeded and cultured. Targeting peptide was diluted with culture medium. Appropriate concentration of DTX was also prepared for the seeded cells. Equivalent culture medium was added as negative control group; 1×10^−9 M targeting peptide solution was added as Peptide group; 10^−9 M DTX was added as DTX group; 10^−9 M targeting peptide and […] were added as combination group (DTX+P). The cells were incubated at 37° C., 5% CO2 for 6 h to analyze the autophagosome. Protein was extracted to measured expression of autophagy related proteins.

HSP90 = assay: Western blotting of HSP90 expression in A549 cells; assay type: cell-based, human; details: 48 h
Procedure: • (1) lung adenocarcinoma A549 cells were trypsinized and then centrifuged at 800×g for 5 min. The precipitate was re-suspended with PBS and adjusted to 1×10^6 cells/ml. • (2) the cells were seeded into 6-well plate and 2 ml culture medium was added. Then the cells were incubated at 37° C., 5% CO2 overnight. • (3) The peptide was diluted with medium and 300 μl solution was added to each well with a final concentration of 1×10^−4 M. Equal volume of medium was added to the negative well. Triple wells were set for each group and experiment was repeated three times. The plate was incubated at 37° C., 5% CO2 for 48 h. Protein was extracted and subjected to Western blotting analysis.

tumor cell [4] = assay: Apoptosis by Annexin V method and Western blotting of apoptosis related proteins; assay type: cell-based
Procedure: The cells were seeded and cultured. Targeting peptide was diluted with culture medium. Appropriate concentration of DTX was also prepared for the seeded cells. Equivalent culture medium was added as negative control group, 1×10^−9 M targeting peptide solution added as Peptide group, 10^−9 M DTX added as DTX group, 10^−9 M targeting peptide and […] added as combination group (DTX+P). The cells were incubated at 37° C., 5% CO2 for 6 h to analyze the apoptosis by Annexin V method. The protein was extracted to measure the expression of apoptosis related proteins.

Row | Compound | IC50 [1] | IC50 (melanoma A375 cells) | IC50 [2] | effect on tumor growth (A549 cell xenograft) | expression of autophagic Beclin1 and LC3, single agent (tumor cell [3]) | expression of HSP90 (HSP90) | apoptosis (Annexin V), peptide alone (tumor cell [4]; 6 h, 1×10^−9 M targeting peptide) | apoptosis (Annexin V), peptide combined with DTX (tumor cell [4]; 6 h, combination group (DTX+P)) | caspase-3 cleavage, peptide alone (tumor cell [4]; Western blotting) | caspase-3 cleavage, peptide combined with DTX (tumor cell [4]; Western blotting, compared with DTX alone) | Beclin1 expression and conversion of LC3-I to LC3-II, DTX and targeting peptide simultaneously added (tumor cell [3]; combination group (DTX+P), compared with DTX treatment only)
1 | COc1ccc2c(c1)C(=O)c1c(O)c3c(c(O)c1C2=O)C[C@@](O)(C(=O)COC(=O)CCC(=O)N[C@@H](CC(C)C)C(=O)N1CCC[C@H]1C(=O)N[C@@H](CC(C)C)C(=O)N[C@H](C(=O)N1CCC[C@H]1C(=O)N[C@@H](CC(C)C)C(=O)N1CCC[C@H]1C(=O)O)[C@@H](C)O)C[C@@H]3OC1CC(N)C(O)C(C)O1 (stereo partly drawn) [DOX-OH-P7] (HELM PEPTIDE1{[COc1ccc2c(c1)C(=O)c1c(O)c3c(c(O)c1C2=O)C[C@@](O)(C(=O)COC(=O)CCC(=O)[*:2])C[C@@H]3OC1CC(N)C(O)C(C)O1].L.P.L.T.P.L.P}$$$$V2.0) | 18.1 nM | 28.4 nM | 6.2 nM |  |  |  |  |  |  |  | 
2 | CC(=O)O[C@@]12CO[C@@H]1C[C@H](O)[C@@]1(C)C(=O)[C@H](O)C3=C(C)[C@@H](OC(=O)[C@H](O)[C@@H](NC(=O)OC(C)(C)C)c4ccccc4)C[C@@](O)([C@@H](OC(=O)c4ccccc4)[C@H]21)C3(C)C [DTX, Docetaxel, reference compound] |  |  |  | obvious inhibitory effects on the tumor growth | enhanced the expression the Beclin 1 and conversion of LC3-I to LC3-II |  |  |  |  |  | 
3 | LPLTPLP (SEQ ID No: 1) [targeting peptide] |  |  |  |  | did not affect the expression of these proteins | effectively down regulated the expression of HSP90 in a dose-dependent manner | induced apoptosis | further promoted apoptosis when combined with DTX | induce caspase-3 cleavage | the cleavage was further enhanced when combined with DTX compared with DTX alone | significantly inhibited the autophagy induced by DTX
